In patent publication US5428048A, “Aryl-N-hydroxyureas as inhibitors of 5-lipoxygenase and anto-arteriosclerotic agents” (American Home Products Corporation, priority 1993, dated 1995):
Values belong to the compound of their own block, whether it stands above or below them.

Key:
[1] = system: LT-dependent bronchoconstriction; assay: Inhibition of Bronchoconstriction in Guinea Pigs Induced by Exogenously Administered Antigen; assay type: in vivo, Male guinea pigs; conditions: 10 mg/kg i.v.
Procedure: 4. Inhibition of Brochoconstriction in Guinea Pigs Induced by Exogenously Administered Antigen
Male guinea pigs (Charles River, Wilmington, Mass.) were sensitized 3-4 weeks prior to antigen challenge by administration of 2 i.m. injections of ovalbumin, 1 into each hind limb (35 mg total). Sensitized animals (500-600 g) were fasted overnight prior to experimentation. Conscious animals were then dosed p.o. with drug or vehicle alone (0.5% Tween 80 in H2 O) at the indicated times prior to antigen challenge, or anesthetized animals were dosed i.v. with drug or vehicle alone (DMSO) 5 min prior to antigen challenge. Animals were anesthetized by urethane (2.8 g/kg i.p.). A carotid artery and jugular vein were cannulated to allow for the monitoring of blood pressure and the administration of drugs, respectively. The trachea was then cannulated and connected to a Harvard Apparatus rodent ventilator (S. Natick, Mass.). Spontaneous respiration was abolished by the administration of succinylcholine (2.5 mg/kg i.v.). The animals were then ventilated with room air at a rate of 65 breaths per min. Airway inflation pressure was measured using a Statham pressure transducer (Gould Instruments, Cleveland, Ohio) connected to the tracheal cannula via a side-arm and recorded on a Grass Instruments recorder (Quincy, Mass.). The tidal volume (approximately 10 cc/kg) was adjusted to give a baseline inflation pressure of 8-10 cm H2 O at end inspiration. Animals were then allowed 20 min to stabilize.
Following the stabilization period, animals were given i.v. injections of pyrilamine (5 mg/kg), propranolol (0.1 mg/kg) and indomethacin (10 mg/kg) at 15, 10 and 5 min, respectively, prior to antigen challenge. This pretreatment results in an LT-dependent bronchoconstriction following antigert challenge, which was accomplished by i.v. administration of ovalbumin (10 mg/kg). Only one bronchoconstriction per animal was induced. End-inspiratory inflation pressure (in cm H2 O over baseline) was measured at 5 min post-antigen challenge. A mean value and standard error for the % inhibition of control bronchoconstriction in each drug-treated group was then calculated.

5-Lipoxygenase = target: T1, 5-Lipoxygenase (Homo sapiens, UniProt P09917); assay: Inhibition of 5-Lipoxygenase in Human Whole Blood (ionophore A23187-stimulated LTB4); assay type: cell-based
T1 construct: endogenous in cells; host or cells: whole blood of male human donors (results per 10^6 neutrophils)
T1 sequence (P09917 1-674): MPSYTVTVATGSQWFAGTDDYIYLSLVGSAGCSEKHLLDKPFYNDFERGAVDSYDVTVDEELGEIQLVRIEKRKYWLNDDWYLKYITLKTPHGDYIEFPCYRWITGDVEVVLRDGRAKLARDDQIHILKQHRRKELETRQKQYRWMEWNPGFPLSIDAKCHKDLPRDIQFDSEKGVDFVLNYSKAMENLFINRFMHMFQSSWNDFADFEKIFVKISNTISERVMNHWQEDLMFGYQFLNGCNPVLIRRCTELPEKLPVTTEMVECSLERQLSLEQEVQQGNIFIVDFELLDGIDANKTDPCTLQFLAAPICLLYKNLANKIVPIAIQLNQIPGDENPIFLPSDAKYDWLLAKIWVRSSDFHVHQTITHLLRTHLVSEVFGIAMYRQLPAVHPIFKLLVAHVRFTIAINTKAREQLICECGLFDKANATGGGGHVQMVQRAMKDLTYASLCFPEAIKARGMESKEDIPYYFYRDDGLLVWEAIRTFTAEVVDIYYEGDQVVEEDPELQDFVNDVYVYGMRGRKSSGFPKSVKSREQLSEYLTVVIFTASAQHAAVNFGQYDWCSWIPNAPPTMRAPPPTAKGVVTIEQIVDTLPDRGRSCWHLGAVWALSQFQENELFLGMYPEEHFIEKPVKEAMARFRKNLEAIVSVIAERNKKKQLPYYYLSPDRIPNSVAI
Procedure: 1. Inhibition of 5-Lipoxygenase in Human Whole Blood
Blood is obtained in 50-100 ml quantities from male donors. White blood cell counts and differentials are made. Two ml of blood are placed in a 15 ml polypropylene test tube. Test compounds are solubilized in dimethylsulfoxide and diluted in 1:10 in 10% bovine serum albumin in phosphate buffered saline, pH 7.4 resulting in a final dimethylsulfoxide concentration of 0.1% in the blood. Then, solutions of test compounds are added to the blood in a shaking water bath at 37° C. for 10 minutes prior to the addition of 30 μM calcium ionophore (A23187, Sigma). After ionophore administration, whole blood samples are mixed and incubated for 20 minutes at 37° C. in a shaking water bath. Incubation is terminated by placing samples in an ice bath and immediately adding ethylene glycol-bis-(β-aminoethyl ether)-N, N,N',N'-tetraacetic acid (10 mM). Samples are mixed and centrifuged at 1200×g for 15 minutes at […]. Preparation of samples for evaluation by RIA or ELISA is carded out by the following protocol. Plasma is removed from sample tubes, placed in 15 ml polypropylene test tubes containing 8 ml methanol, and then vortexed to precipitate protein. Samples are stored at -70° C. overnight. The next day, samples are centrifuged at 200×g for 15 minutes at 4° C. to pellet the precipitate. Samples are dried in a Savant SpeedVac Concentrator, Model SVC 200H, reconstituted to original volume with ice cold RIA or ELISA buffer, and stored at -70° C. until assayed. The assay for eicosanoids (LTB4, TxB2, and PGE2) is performed as described by the manufacturer of the [^3 H]-RIA kit or ELISA kit (LTB4 -Amersham, TxB2 and PGE2 - Caymen Chemical).
The total eicosanoid level in 2 ml of blood is calculated and reported as ng/10^6 neutrophils. Significance is determined by a one-way analysis of variance with least significant difference (LSD) comparisons to control (p≤0.05) and IC50 's (μM) are determined by regression analysis (Finney, 1978). Drug effects are expressed as percent change from control values.

LDL [2] = conditions: in words; cited from earlier work
LDL [3] = conditions: in words; cited from earlier work; remark: listed apart in the source
atherosclerotic lesions = conditions: WHHL rabbits, in words; cited from earlier work
Low Density Lipoprotein = assay: Inhibition of Copper Ion Mediated Oxidation of Low Density Lipoprotein; assay type: biochemical; conditions: Cu+2 mediated oxidation of rabbit or monkey LDL, 37° C., 90 minutes, 532 nm
Procedure: 5. Inhibition of Copper Ion Mediated Oxidation of Low Density Lipoprotein
In this in vitro assay, the inhibition of Cu^+2 mediated oxidation of rabbit or monkey LDL by an invention compound is determined spectrophotometricallly. Oxidation of LDL results in the formation of LDL-diene which absorbs light at 532 nm. Inhibition of oxidation of LDL leads to a decrease in absorbance at 532 nm.
Rabbit or monkey LDL is prepared according to the procedures of Havel, Eder and Gragdon, "The Distribution and Chemical Composition of Ultracentrifugally Separated Lipoproteins in Human Serum,: J. Clin. Invest. 34, 1345-1353 (1955) and Parhtasarathy, Wieland and Steriberg, "A Role for Endothelial Cell Lipoxygenase in the Oxidative Modification of Low Density Lipoprotein," Proc. Natl. Acad. Sci. USA 86, 1046-1050 (1989). Test compound solutions are prepared by dissolving the invention compounds in ethanol at concentrations up to 248 μM. The medium used is Dulbecco's phosphate buffered saline containing 0.5 mg/ml bovine serum albumin. For standards, 0 to 10 μl of an aqueous solution of 1,1,3,3-tetraethoxypropane (1 μmol/ml H2 O) in 4.1 ml of medium is used.
Test compound solution ([…]) is added to 4 ml of medium in incubation tubes. To each tube is added 10 μl of LDL solution and 25 μl of aqueous copper sulfate solution (1.32 mg/ml H2 O). The tubes are incubated at 37° C. for 90 minutes and the oxidation reaction quenched by addition of 1 ml of thiobarbituric acid solution (0.67% in 50% acetic acid). The tubes are heated at 90° C. for 1 hour, then chilled in an ice bath and the chromophore extracted into 2 ml of n-butanol. Absorbence is read at 532 nm and the results are reported as nmols of malondialdehyde equivalents.
Significant differences (p<0.05) are determined by the Dunnett T-test or by the Student-Newman-Keuls Test for significant differences between means. The assay is conducted using several concentrations [I] of the inhibitor test compounds. The LDL solution concentrations at different experiments were either 1.5 mg/ml, 2.5 mg/ml or 10.3 mg/ml. The IC50 is determined by non-linear regression, plotting log [I] vs. % inhibition. (Reference: K. Yagi, Biochemical Medicine 15,212-216 (1976)).

Lipoxygenase = assay: Ex-Vivo Measurement of Lipoxygenase Inhibition in Orally Dosed Rats (LTB4 in A23187-stimulated blood); parameters: species or system Male Sprague Dawley rats; conditions: ex vivo rat, p.o., dose 10 (mg/kg), pretreatment 3 hr
Procedure: 2. […] After an interval of 3 or 6 hours, the rats were anesthetized with metofane (n =4/group) and blood collected in heparinized tubes. White blood cell counts and differentials were made. One ml of blood from each animal was placed in a 5 ml plastic tube in a shaker bath at 37° C. A23187 at a final concentration of 10 μM was added to the blood and the blood vortexed and incubated for 15 min at 37° C. with gentle shaking. Incubation was terminated by vortexing sample and centrifuging immediately at 1200 xG for 15 min at 4° C. The plasma was transferred to 15 ml plastic tubes each containing 8 ml of methanol to precipitate protein followed by vortexing. The samples were stored at -70° C. overnight and the next day the samples were centrifuged at 800 xG for 15 min to pellet the precipitate. The samples were dried in a Savant SpeedVac Concentrator Model SVC 200H and reconstituted to the original volume with cold RIA or ELISA buffer. The reconstituted samples were stored at -70° C. until assayed. The assay for LTB4 was perforated according to the directions of the [^3 H]RIA kit or ELISA kit (Seragen). The total metabolite level in 1 ml of blood is calculated and reported as ng/10^6 neutrophils. Significance is determined by a one-way analysis of variance with LSD comparisons to control (p<0.05).

- inhibition at 1 µM (5-Lipoxygenase; 1 μM): 57%
Structure (SMILES): NC(=O)N(O)Cc1ccc(OCCc2csc(-c3ccc(C(F)(F)F)cc3)n2)cc1 [Example 19, 1-Hydroxy-1-[4-[2-[2-(4-trifluoromethyl-phenyl)-thiazol-4-yl]-ethoxy]-benzyl]-urea]
- Bronchoconstriction % Inhibition [1]: 21%

Structure (SMILES): CC(C)(Sc1cc(C(C)(C)C)c(O)c(C(C)(C)C)c1)Sc1cc(C(C)(C)C)c(O)c(C(C)(C)C)c1 [Probucol]
- inhibition of Cu+2 mediated oxidative modification of LDL (LDL [2]): inhibits both cell mediated and Cu^+2 mediated oxidative modification of LDL
- inhibition of cell mediated oxidative modification of LDL (LDL [3]): inhibits both cell mediated and Cu^+2 mediated oxidative modification of LDL
- inhibition of formation of atherosclerotic lesions (atherosclerotic lesions): shown to inhibit the formation of atherosclerotic lesions in WHHL rabbits

- inhibition at 10 µM (5-Lipoxygenase; 10 μM): 83%
- IC50 (Low Density Lipoprotein): 0.18 µM
Structure (SMILES): Cc1oc(-c2cc(C(C)(C)C)c(O)c(C(C)(C)C)c2)nc1CCOc1ccc(CN(O)C(N)=O)cc1 [Example 10]
- % Inhibition of LTB4 (Lipoxygenase): 44%
